Assay results as given in patent publication US9815846B2 (Merck Sharp & Dohme Corp., priority 2014, dated 2017).
pIC50: −log10 of the molar value.

target: human TrkA receptor (Homo sapiens (Human), UniProt P04629); test: DiscoverX PathHunter TrkA functional assay (NGF-stimulated U2OS cells); type: cell-based; conditions: U2OS cells expressing human TrkA-PK, Shc1-EA and p75NTR; compound 1 h, then NGF at ~80% of maximal response for 3 h; luminescence
Sequence (P04629 33-796): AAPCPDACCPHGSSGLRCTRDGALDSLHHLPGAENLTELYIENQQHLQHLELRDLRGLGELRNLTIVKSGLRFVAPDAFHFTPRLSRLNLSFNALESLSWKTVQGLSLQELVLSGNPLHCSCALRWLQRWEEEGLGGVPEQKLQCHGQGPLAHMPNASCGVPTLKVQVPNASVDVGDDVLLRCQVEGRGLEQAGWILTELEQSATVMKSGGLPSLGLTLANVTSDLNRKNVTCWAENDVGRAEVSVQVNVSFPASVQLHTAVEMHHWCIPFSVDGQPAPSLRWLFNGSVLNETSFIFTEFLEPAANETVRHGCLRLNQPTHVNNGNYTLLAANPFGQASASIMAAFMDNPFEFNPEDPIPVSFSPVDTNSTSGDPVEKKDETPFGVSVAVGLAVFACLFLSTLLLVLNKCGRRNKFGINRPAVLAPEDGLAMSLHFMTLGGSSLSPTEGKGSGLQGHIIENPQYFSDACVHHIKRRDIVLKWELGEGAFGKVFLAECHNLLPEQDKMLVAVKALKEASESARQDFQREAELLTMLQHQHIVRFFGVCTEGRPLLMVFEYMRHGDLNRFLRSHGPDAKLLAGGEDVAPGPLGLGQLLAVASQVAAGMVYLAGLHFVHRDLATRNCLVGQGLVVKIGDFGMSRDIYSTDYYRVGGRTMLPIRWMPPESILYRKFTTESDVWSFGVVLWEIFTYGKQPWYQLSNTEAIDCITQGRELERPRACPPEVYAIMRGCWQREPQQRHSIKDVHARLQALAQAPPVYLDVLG

Compound | pIC50
Cn1ccc(-c2cc(C(=O)Nc3cc4c(nc3-c3ccccc3)CN(C(N)=O)CC4)c(F)cc2C(F)(F)F)n1 [Example 144, 3-(2-Fluoro-5-(1-methyl-1H-pyrazol-3-yl)-4-(trifluoromethyl)benzamido)-2-phenyl-5,6-dihydro-1,7-naphthyridine-7(8H)-carboxamide] | 9.59
Cn1ccc(-c2cc(C(=O)Nc3cnc(CC4CC(=O)NC4=O)nc3-c3ccccc3)c(F)cc2C(F)(F)F)n1 (centres unmarked) [Example 201, N-(2-((2,5-Dioxopyrrolidin-3-yl)methyl)-4-phenylpyrimidin-5-yl)-2-fluoro-5-(1-methyl-1H-pyrazol-3-yl)-4-(trifluoromethyl)benzamide] | 8.55
Cn1ccc(-c2cc(C(=O)Nc3cnc(C4CCCNC4=O)nc3-c3ccccc3)c(F)cc2C(F)(F)F)n1 (centres unmarked) [Example 193, 2-Fluoro-5-(1-methyl-1H-pyrazol-3-yl)-N-(2-(2-oxopiperidin-3-yl)-4-phenylpyrimidin-5-yl)-4-(trifluoromethyl)benzamide] | 8.41
Cn1ccc(-c2cc(C(=O)Nc3cc4c(nc3-c3ccccc3)CCN(CCO)C4)ccc2C(F)(F)F)n1 [Example 158, N-(6-(2-hydroxyethyl)-2-phenyl-5,6,7,8-tetrahydro-1,6-naphthyridin-3-yl)-3-(1-methyl-1H-pyrazol-3-yl)-4-(trifluoromethyl)benzamide] | 8.12
Cn1ccc(-c2cc(C(=O)Nc3cnc(N4CCNC4=O)nc3-c3ccccc3)c(F)cc2C(F)(F)F)n1 [Example 211, 2-fluoro-5-(1-methyl-1H-pyrazol-3-yl)-N-(2-(2-oxoimidazolidin-1-yl)-4-phenylpyrimidin-5-yl)-4-(trifluoromethyl)benzamide] | 8.59
Cn1ccc(-c2cc(C(=O)Nc3cnc(NCC(N)=O)nc3-c3ccccc3)c(F)cc2C(F)(F)F)n1 [Example 213, N-(2-((2-amino-2-oxoethyl)amino)-4-phenylpyrimidin-5-yl)-2-fluoro-5-(1-methyl-1H-pyrazol-3-yl)-4-(trifluoromethyl)benzamide] | 8.85
Cn1ccc(-c2cc(C(=O)Nc3cc4c(nc3-c3ccccc3)CCN(CC(N)=O)C4)ccc2C(F)(F)F)n1 [Example 140, N-(6-(2-Amino-2-oxoethyl)-2-phenyl-5,6,7,8-tetrahydro-1,6-naphthyridin-3-yl)-3-(1-methyl-1H-pyrazol-3-yl)-4-(trifluoromethyl)benzamide] | 8.74
Cn1ccc(-c2cc(C(=O)Nc3cnc(CC(=O)NCC4CCOC4)nc3-c3ccccc3)c(F)cc2C(F)(F)F)n1 (centres unmarked) [Example 112, 2-fluoro-5-(1-methyl-1H-pyrazol-3-yl)-N-(2-(2-oxo-2-(((tetrahydrofuran-3-yl)methyl)amino)ethyl)-4-phenylpyrimidin-5-yl)-4-(trifluoromethyl)benzamide] | 8.19
CCNC(=O)Cc1ncc(NC(=O)c2cc(-c3ccn(C)n3)c(C(F)(F)F)cc2F)c(-c2ccccc2)n1 [Example 105, N-(2-(2-(ethylamino)-2-oxoethyl)-4-phenylpyrimidin-5-yl)-2-fluoro-5-(1-methyl-1H-pyrazol-3-yl)-4-(trifluoromethyl)benzamide] | 9.28
Cc1ncc(NC(=O)c2ccc(C(F)(F)F)c(-c3cscn3)c2)c(-c2ccccc2)n1 [Example 12, N-(2-methyl-4-phenylpyrimidin-5-yl)-3-(1,3-thiazol-4-yl)-4-(trifluoromethyl)benzamide] | 7.44
COCC(=O)NCc1ccc(NC(=O)c2cc(-c3ccn(C)n3)c(C(F)(F)F)cc2F)c(-c2ccccc2)n1 [Example 58, 2-fluoro-N-(6-((2-methoxyacetamido)methyl)-2-phenylpyridin-3-yl)-5-(1-methyl-1H-pyrazol-3-yl)-4-(trifluoromethyl)benzamide] | 9.72
CCn1c(Cc2ncc(NC(=O)c3cc(-c4ccn(C)n4)c(C(F)(F)F)cc3F)c(-c3ccccc3)n2)n[nH]c1=O [Example 180, N-(2-((4-ethyl-5-oxo-4,5-dihydro-1H-1,2,4-triazol-3-yl)methyl)-4-phenylpyrimidin-5-yl)-2-fluoro-5-(1-methyl-1H-pyrazol-3-yl)-4-(trifluoromethyl)benzamide] | 8.49
CNC(=O)Cc1ncc(NC(=O)c2cc(-c3ccn(C)n3)c(C(F)(F)F)cc2F)c(-c2ccccc2)n1 [Example 104, 2-fluoro-5-(1-methyl-1H-pyrazol-3-yl)-N-(2-(2-(methylamino)-2-oxoethyl)-4-phenylpyrimidin-5-yl)-4-(trifluoromethyl)benzamide] | 9.12
Cn1ccc(-c2cc(C(=O)Nc3cnc(OCC(N)=O)nc3-c3ccccc3)c(F)cc2C(F)(F)F)n1 [Example 216, N-(2-(2-Amino-2-oxoethoxy)-4-phenylpyrimidin-5-yl)-2-fluoro-5-(1-methyl-1H-pyrazol-3-yl)-4-(trifluoromethyl)benzamide] | 8.74
Cn1ccc(-c2cc(C(=O)Nc3cnc(CC(=O)NC4CCC4)nc3-c3ccccc3)c(F)cc2C(F)(F)F)n1 [Example 113, N-(2-(2-(cyclobutylamino)-2-oxoethyl)-4-phenylpyrimidin-5-yl)-2-fluoro-5-(1-methyl-1H-pyrazol-3-yl)-4-(trifluoromethyl)benzamide] | 8.89
Cn1ccc(-c2cc(C(=O)Nc3cnc(CNC(=O)C(C)(N)CO)nc3-c3ccccc3)c(F)cc2C(F)(F)F)n1 (single isomer, unassigned) [Example 66, (S or R)-N-(2-((2-amino-3-hydroxy-2-methylpropanamido)methyl)-4-phenylpyrimidin-5-yl)-2-fluoro-5-(1-methyl-1H-pyrazol-3-yl)-4-(trifluoromethyl)benzamide] | 8.92
CCN(C)C(=O)Cc1ncc(NC(=O)c2cc(-c3ccn(C)n3)c(C(F)(F)F)cc2F)c(-c2ccccc2)n1 [Example 115, N-(2-(2-(ethyl(methyl)amino)-2-oxoethyl)-4-phenylpyrimidin-5-yl)-2-fluoro-5-(1-methyl-1H-pyrazol-3-yl)-4-(trifluoromethyl)benzamide] | 8.59
Cn1ccc(-c2cc(C(=O)Nc3ccc(CNC(=O)[C@@H]4CCC(=O)N4)nc3-c3ccccc3)c(F)cc2C(F)(F)F)n1 [Example 57, (S)-N-((5-(2-fluoro-5-(1-methyl-1H-pyrazol-3-yl)-4-(trifluoromethyl)benzamido)-6-phenylpyridin-2-yl)methyl)-5-oxopyrrolidine-2-carboxamide] | 8.96

The remaining lines, values ahead:

pIC50 | Compound
9.29 | Cn1ccc(-c2cc(C(=O)Nc3cc(-c4ccc(C(N)=O)cn4)cnc3-c3ccccc3)c(F)cc2C(F)(F)F)n1 [Example 164, 5′-(2-Fluoro-5-(1-methyl-1H-pyrazol-3-yl)-4-(trifluoromethyl)benzamido)-6′-phenyl-[2,3′-bipyridine]-5-carboxamide]
8.29 | Cn1ccc(-c2cc(C(=O)Nc3cnc(CN4CCN(S(C)(=O)=O)CC4)nc3-c3ccccc3)c(F)cc2C(F)(F)F)n1 [Example 182, 2-Fluoro-5-(1-methyl-1H-pyrazol-3-yl)-N-(2-((4-(methylsulfonyl)piperazin-1-yl)methyl)-4-phenylpyrimidin-5-yl)-4-(trifluoromethyl)benzamide]
8.96 | CN(Cc1ccc(NC(=O)c2cc(-c3ccn(C)n3)c(C(F)(F)F)cc2F)c(-c2ccccc2)n1)C(N)=O [Example 78, 2-fluoro-5-(1-methyl-1H-pyrazol-3-yl)-N-(6-((1-methylureido)methyl)-2-phenylpyridin-3-yl)-4-(trifluoromethyl)benzamide]
8.15 | Cn1ccc(-c2cc(C(=O)Nc3ccc(CN4CC5(COC5)C4)nc3-c3ccccc3)c(F)cc2C(F)(F)F)n1 [Example 183, N-(6-((2-oxa-6-azaspiro[3.3]heptan-6-yl)methyl)-2-phenylpyridin-3-yl)-2-fluoro-5-(1-methyl-1H-pyrazol-3-yl)-4-(trifluoromethyl)benzamide]
8.35 | Cn1ccc(-c2cc(C(=O)Nc3cnc(CC4CCNC4=O)nc3-c3ccccc3)c(F)cc2C(F)(F)F)n1 (single isomer, unassigned) [Example 191, (R or S)-2-Fluoro-5-(1-methyl-1H-pyrazol-3-yl)-N-(2-(2-oxopyrrolidin-3-yl)methyl)-4-phenylpyrimidin-5-yl)-4-(trifluoromethyl)benzamide]
8.55 | Cn1ccc(-c2cc(C(=O)Nc3cc(S(C)(=N)=O)cnc3-c3ccccc3)c(F)cc2C(F)(F)F)n1 (centres unmarked) [Example 195, 2-fluoro-5-(1-methyl-1H-pyrazol-3-yl)-N-(5-(S-methylsulfonimidoyl)-2-phenylpyridin-3-yl)-4-(trifluoromethyl)benzamide]
8.07 | Cn1ccc(-c2cc(C(=O)Nc3cc(C(N)=O)c(N)nc3-c3ccccc3)ccc2C(F)(F)F)n1 [Example 87, 2-amino-5-(3-(1-methyl-1H-pyrazol-3-yl)-4-(trifluoromethyl)benzamido)-6-phenylnicotinamide]
8.48 | CC(=O)N1CCc2nc(-c3ccccc3)c(NC(=O)c3cc(-c4ncccn4)c(C(F)(F)F)cc3F)cc2C1 [Example 148, N-(6-acetyl-2-phenyl-5,6,7,8-tetrahydro-1,6-naphthyridin-3-yl)-2-fluoro-5-(pyrimidin-2-yl)-4-(trifluoromethyl)benzamide]
8.32 | CNC(=O)c1ccc(-c2cnc(-c3ccccc3)c(NC(=O)c3cc(-c4ncccn4)c(C(F)(F)F)cc3F)c2)nc1 [Example 174, 5′-(2-fluoro-5-(pyrimidin-2-yl)-4-(trifluoromethyl)benzamido)-N-methyl-6′-phenyl-[2,3′-bipyridine]-5-carboxamide]
8.03 | Cn1ccc(-c2cc(C(=O)Nc3cc(C(N)=O)nnc3-c3ccccc3)c(F)cc2C(F)(F)F)n1 [Example 94, 5-(2-fluoro-5-(1-methyl-1H-pyrazol-3-yl)-4-(trifluoromethyl)benzamido)-6-phenylpyridazine-3-carboxamide]
7.60 | Cn1ccc(-c2cc(C(=O)Nc3cnc(CCN4CCOCC4)nc3-c3ccccc3)ccc2C(F)(F)F)n1 [Example 38, 3-(1-methyl-1H-pyrazol-3-yl)-N-(2-(2-morpholinoethyl)-4-phenylpyrimidin-5-yl)-4-(trifluoromethyl)benzamide]
